Results reported in US20100144853A1, “NOVEL COMBINED ADMINISTRATION” (priority 2008, published 2010).

Experiments:
Type in all cases: in vitro ADME
[1] = Stability of COMPOUND A in human intestinal fluids, Procedure F (suspension, no separation of excess), first table; conditions: fasted HIF
Experimental: (§1) Fasted Intestinal Fluids: the fluids from 4 different subjects were collected with a naso-jejunal tube after fasting overnight and pooled.
Procedure F (COMPOUND A and COMPOUND B in suspension, the degradation immediately stopped without separation of excess compound): Stock K=COMPOUND B suspension (0.5 mg/mL)
Dilute 1 part of COMPOUND B suspension (stock J) with 3 parts of FeSSIF pH6.5 solution.
500 μL of freshly thawed intestinal fluids (fasted and stimulated state) were added to 1.2 mg of COMPOUND A in a 1 mL glass vial. The suspended compound was stirred for 15 min at 37° C. to obtain wetting and a homogenous suspension. In parallel, 4 glass vials were prepared with 20 μL of a COMPOUND B suspension at different concentrations. These concentrations were obtained by mixing FeSSIF pH6.5 and COMPOUND B suspension (stock K) in different ratios, respectively 1:[…], 1:1, 0:1 to obtain 0, 1, 2 and 4% related to COMPOUND A. At time zero, 100 μL of COMPOUND A suspension preincubated at 37° C. were added to the 20 μL COMPOUND B suspension. The mixture was incubated at 37° C. with gentle stirring. After 15 min and 60 min, the reaction was stopped by mixing a 50 μL sample with 150 μL isopropanol and centrifuged at 5′000 rpm during 5 min. The clear supernatant was analyzed for the hydrolysis product and its oxidized form by HPLC.

[2] = Stability of COMPOUND A in human intestinal fluids, Procedure E (suspension, excess separated by centrifugation), stimulated; conditions: HIF-stimulated
Experimental: Stimulated Intestinal Fluids: the fluids from 3 different subjects were collected after fasting overnight with a nasojejunal tube and pooled. For the stimulation, twenty minutes before the beginning of the collection, volunteers were provided with chewing-gums and were asked to chew over a 15 minutes period, maintaining the taste by replacing the sticks of gum approximately every 2 minutes.
(§2) Procedure E (COMPOUND A and COMPOUND B in Suspension, Excess Compound Separated by Centrifugation):
(§3) Stock J=COMPOUND B suspension (2 mg/mL)
(§4) 100 μL of FeSSIF concentrate and 900 μL of pro-FeSSIF pH6.5 were added to 4 mg commercially available Orlistat formulation (Xenical®) containing 2 mg of lipase inhibitor 1-(3-hexyl-4-oxo-oxetan-2-yl)tridecan-2-yl 2-formyl-amino-4-methyl-pentanoate (COMPOUND B) in a vial and the formulation was dispersed by gently stirring during 15 min to obtain a fine homogenous suspension.
(§5) 500 μL of freshly thawed intestinal fluids (fasted and stimulated state) were added to 1 mg of COMPOUND A in a 1 mL glass vial immediately followed by the addition of either 0, 10 or 20 μL of COMPOUND B suspension (stock J) corresponding to 0, 40 or 80 μg/mL of COMPOUND B. The amount of COMPOUND B was 0, 2% or 4% COMPOUND B relative to COMPOUND A. The mixture was incubated at 37° C. with gentle stirring. Samples of 90 μL were removed as function of time and centrifuged at 13′000 rpm (about 12′000×g) for 5 min. 50 μL of the supernatant was diluted with 150 μL isopropanol, centrifuged at 5′000 rpm for 5 min and the clear supernatant was analyzed by HPLC.

[3] = Stability of COMPOUND A in human intestinal fluids, Procedure E (suspension, excess separated by centrifugation), fasted; conditions: HIF-fasted
Experimental: as §1, §2, §3, §4, §5

[4] = test system: Lipase from Hog Pancreas; experiment: Stability of COMPOUND A with Lipase, Procedure B (premix of COMPOUND B and COMPOUND A, then Lipase); conditions: 10 min, 0.55 mg/mL (11 U/mL) Lipase
Experimental: 240 mg Lipase (Lipase from Hog Pancreas, 20.6 U/mg Lipase, CAS No. 9001-62-1, Fluka, Art. No. 62300) were weighed into a vial and dissolved by stirring in 10 mL phosphate buffered saline solution pH 6.5. Any undissolved material was removed by centrifugation during 5 min at 5000 rpm. The supernatant was used for the experiments and diluted with PBS to obtain the Lipase at the final concentration of 0.55 mg/mL.
Procedure B (Premix of COMPOUND B and COMPOUND A, Followed by Addition of Lipase):
100 μL of drug solution (stock A) were mixed with 0, 12, 25 or 50 μL esterase inhibitor solution (stock B) and 100, 88, 75 or 50 μL of FeSSIF concentrate (Lecithin37.5 mM and Sodium taurocholate 150 mM) were added to make up 200 μL of a solution with COMPOUND B concentrations of 0, 12, 25 or 50 μg/mL. At time zero, 800 μL of Lipase in phosphate buffered saline solution (from stock C to obtain final enzyme concentrations of 0.55 mg/mL) were added. The reaction mixture was incubated at 37° C. and stopped after 10 minutes by diluting one part of the reaction mixture with 3 parts Isopropanol.

[5] = with 40 μg/mL of COMPOUND B, 15 min
[6] = with 40 μg/mL of COMPOUND B, 30 min
[7] = with 40 μg/mL of COMPOUND B, 1 h
[8] = with 40 μg/mL of COMPOUND B, 2 h
[9] = with 40 μg/mL of COMPOUND B, 4 h
[10] = with 80 μg/mL of COMPOUND B, 15 min
[11] = with 80 μg/mL of COMPOUND B, 30 min
[12] = with 80 μg/mL of COMPOUND B, 1 h
[13] = with 80 μg/mL of COMPOUND B, 2 h
[14] = with 80 μg/mL of COMPOUND B, 4 h

- Concentration of COMPOUND A ([1]; COMPOUND B 0 μg/mL (0%), T = 15 min): 1111.92 µg/mL
- Concentration of COMPOUND A ([1]; COMPOUND B 0 μg/mL (0%), T = 60 min): 182.50 µg/mL
- Concentration of COMPOUND A ([1]; COMPOUND B 20 μg/mL (1%), T = 15 min): 1299.01 µg/mL
- Concentration of COMPOUND A ([1]; COMPOUND B 20 μg/mL (1%), T = 60 min): 718.26 µg/mL
- Concentration of COMPOUND A ([1]; COMPOUND B 40 μg/mL (2%), T = 15 min): 1381.23 µg/mL
- Concentration of COMPOUND A ([1]; COMPOUND B 40 μg/mL (2%), T = 60 min): 598.81 µg/mL
- Concentration of COMPOUND A ([1]; COMPOUND B 80 μg/mL (4%), T = 15 min): 1728.95 µg/mL
- Concentration of COMPOUND A ([1]; COMPOUND B 80 μg/mL (4%), T = 60 min): 826.93 µg/mL
- Concentration of COMPOUND A [2, 5]: 0.74 µg/mL
- Concentration of COMPOUND A [2, 6]: 0.55 µg/mL
- Concentration of COMPOUND A [2, 7]: 10.53 µg/mL
- Concentration of COMPOUND A [2, 8]: 32.71 µg/mL
- Concentration of COMPOUND A [2, 9]: 221.31 µg/mL
- Concentration of COMPOUND A [2, 10]: 1.00 µg/mL
- Concentration of COMPOUND A [2, 11]: 11.80 µg/mL
- Concentration of COMPOUND A [2, 12]: 64.63 µg/mL
- Concentration of COMPOUND A [2, 13]: 131.64 µg/mL
- Concentration of COMPOUND A [2, 14]: 171.25 µg/mL
- Concentration of COMPOUND A ([2]; without COMPOUND B, 15 min): 3.09 µg/mL
- Concentration of COMPOUND A ([2]; without COMPOUND B, 30 min): 0.52 µg/mL
- Concentration of COMPOUND A ([2]; without COMPOUND B, 1 h): 0.62 µg/mL
- Concentration of COMPOUND A ([2]; without COMPOUND B, 2 h): 0.82 µg/mL
- Concentration of COMPOUND A ([2]; without COMPOUND B, 4 h): 1.31 µg/mL
- Concentration of COMPOUND A [3, 5]: 1.12 µg/mL
- Concentration of COMPOUND A [3, 6]: 11.75 µg/mL
- Concentration of COMPOUND A [3, 7]: 111.05 µg/mL
- Concentration of COMPOUND A [3, 8]: 217.35 µg/mL
- Concentration of COMPOUND A [3, 9]: 281.66 µg/mL
- Concentration of COMPOUND A [3, 10]: 5.62 µg/mL
- Concentration of COMPOUND A [3, 11]: 16.36 µg/mL
- Concentration of COMPOUND A [3, 12]: 89.60 µg/mL
- Concentration of COMPOUND A [3, 13]: 230.34 µg/mL
- Concentration of COMPOUND A [3, 14]: 336.00 µg/mL
- Concentration of COMPOUND A ([3]; without COMPOUND B, 15 min): 1.62 µg/mL
- Concentration of COMPOUND A ([3]; without COMPOUND B, 30 min): 1.86 µg/mL
- Concentration of COMPOUND A ([3]; without COMPOUND B, 1 h): 0.49 µg/mL
- Concentration of COMPOUND A ([3]; without COMPOUND B, 2 h): 0.49 µg/mL
- Concentration of COMPOUND A ([3]; without COMPOUND B, 4 h): 0.49 µg/mL
- Concentration of COMPOUND A ([4]; COMPOUND B 0 μg/mL): 23.0 µg/mL
- Concentration of COMPOUND A ([4]; COMPOUND B 12 μg/mL): 46.4 µg/mL
- Concentration of COMPOUND A ([4]; COMPOUND B 25 μg/mL): 46.5 µg/mL
- Concentration of COMPOUND A ([4]; COMPOUND B 50 μg/mL): 46.1 µg/mL
Structure (SMILES): CCC(CC)CC1(C(=O)Nc2ccccc2SC(=O)C(C)C)CCCCC1 [COMPOUND A, thioisobutyric acid S-(2-{[1-(2-ethyl-butyl)-cyclohexanecarbonyl]-amino}-phenyl)ester]
